# Test results: ChEMBL document CHEMBL1134277, “N-[3-(2-Dimethylaminoethyl)-2-methyl-1H- indol-5-yl]-4-fluorobenzamide: a potent, selective, and orally active 5-HT(1F) receptor agonist potentially useful for migraine therapy” (J Med Chem, 2001)
# Experiments:
# [1] = Selectivity is the binding affinity towards human 5-HT1D receptor to that of human 5-HT1F receptor
# [2] = Selectivity is the binding affinity towards human 5-HT1B receptor to that of human 5-HT1F receptor
# [3] = Selectivity is the binding affinity towards human 5-HT1A receptor to that of human 5-HT1F receptor
# [4] = biological target: T1, 5-hydroxytryptamine receptor 1F (Homo sapiens, UniProt P30939); experiment: Binding affinity towards human 5-hydroxytryptamine 1F receptor
# T1 sequence (P30939 whole entry): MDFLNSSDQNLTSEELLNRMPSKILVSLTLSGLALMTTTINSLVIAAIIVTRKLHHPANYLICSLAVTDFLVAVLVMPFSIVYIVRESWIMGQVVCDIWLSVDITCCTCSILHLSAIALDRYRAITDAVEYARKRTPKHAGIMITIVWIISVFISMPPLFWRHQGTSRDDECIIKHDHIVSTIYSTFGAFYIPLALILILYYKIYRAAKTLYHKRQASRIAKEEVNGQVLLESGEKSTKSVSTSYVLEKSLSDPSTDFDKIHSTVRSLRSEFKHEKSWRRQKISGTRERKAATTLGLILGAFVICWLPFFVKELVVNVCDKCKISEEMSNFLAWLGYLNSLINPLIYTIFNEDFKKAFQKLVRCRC
# [5] = biological target: T2, 5-hydroxytryptamine receptor 1F (Homo sapiens) (UniProt P30939); experiment: In vitro agonist potency against human 5-hydroxytryptamine 1F receptor; assay type: functional
# T2 sequence (whole entry): T1 sequence (P30939 whole entry)
SMILES,Selectivity [1],Selectivity [2],Selectivity [3],Ki [4] [nM],Emax [5] [%]
CN(C)CCc1c[nH]c2cccc(NC(=O)c3ccc(F)cc3)c12,3,9,3,3.8,–
CNS(=O)(=O)Cc1ccc2[nH]cc(CCN(C)C)c2c1,–,–,–,–,98
